The structures appear in SMILES notation. Where a SMILES comes first, the peptide text is derived from it.

The subject of test [1] is T:THF (DNA, mismatch bulge abasic, tetrahydrofuran (THF) abasic analogue at 6 of strand 1, opposite T) TCACCNGTCGTA/TACGACTGGTGA
In words: UV melting at 260 nm. As to conditions: 100 mM NaCl; 10 mM sodium phosphate pH 7.0, 1 mM EDTA; 5 μM DNA, 5 μM C1.

The test system is the same in test [2]. Kind of test: CD forward titration, ICD at 500 nm. As to conditions: 100 mM NaCl, 10 mM sodium phosphate pH 7.0, 1 mM EDTA, 15 °C, apparent.
Test [3] has as its system AP site-containing oligodeoxynucleotide (unlabeled) (DNA, single strand, natural AP site (from dU by UDG) at 4) TCANCGT. In words: ESI-MS / CID of reduced covalent complex. To be noted: 100 mM Hepes-K pH 7.3, 50 mM NaB(CN)H3, 37 °C overnight.
Test [4] concerns AP site-containing oligodeoxynucleotide (32P-labeled) (DNA, single strand, natural AP site (from dU by UDG) at 4) TCANCGT. In words: cyanoborohydride trapping, denaturing gel shift. As to conditions: 100 mM Hepes-K pH 7.3, 50 mM NaB(CN)H3, 18 °C overnight, covalent.
Test [5] relates to dU-containing oligodeoxynucleotide 5'-TCA(dU)CGT-3' (DNA, single strand, 2'-deoxyuridine at 4) TCAUCGT. Kind of test: cyanoborohydride trapping, denaturing gel shift. To be noted: 100 mM Hepes-K pH 7.3, 50 mM NaB(CN)H3, 18 °C overnight; 10 μM C1; covalent trapping only.
In test [6] the test system is T:A (DNA, duplex) TCACCAGTCGTA/TACGACTGGTGA
In words: UV melting at 260 nm. To be noted: 100 mM NaCl; 10 mM sodium phosphate pH 7.0, 1 mM EDTA; 5 μM DNA, 5 μM C1.

Test [7] shares this test system. Kind of test: CD forward titration, ICD at 500 nm. To be noted: 100 mM NaCl; 10 mM sodium phosphate pH 7.0, 1 mM EDTA, 15 °C; apparent; non-specific binding.
For test [8], the system named is T:AP (DNA, mismatch bulge abasic, natural apurinic/apyrimidinic site (from dU by UDG) at 6 of strand 1, opposite T) TCACCNGTCGTA/TACGACTGGTGA
In words: CD forward titration, ICD at 500 nm. As to conditions: 100 mM NaCl; 10 mM sodium phosphate pH 7.0, 1 mM EDTA, 15 °C; apparent; corrected for non-specific interactions (uncorrected 44 ± 5).

Usually ΔTm stands for the change in melting temperature against a reference sample. With `CNCC#Cc1c(F)ccc2c1/C(=C/c1[nH]ccc1OC)C(=O)N2`, the shift in melting temperature (ΔTm) came to 6.3 °C in test [1] and 1 °C in test [6]. Also, the KD in test [2] (corrected for non-specific interactions (uncorrected 29 ± 1)) came to 22 ± 1 µM; in test [7], 64 ± 3 µM. The binding result in test [3] was “yes”; in test [4] (10 μM C1, ~80% trapped) it was “yes”; in test [5], “no”.
Take `COc1cc[nH]c1/C=C1\C(=O)Nc2ccc(F)c(C#CC3(O)CCNCC3)c21`: the values for the KD in test [2] (corrected for non-specific interactions (uncorrected 35 ± 1)), in test [8] and in test [7] were 28 ± 1 µM, 28 ± 2 µM and 69 ± 14 µM, respectively.
With `NCCCC[C@H](NC(=O)[C@H](CCCCN)NC(=O)[C@H](Cc1c[nH]c2ccccc12)NC(=O)[C@@H](N)CCCCN)C(=O)O` (H-KWKK-OH), the binding entry in test [4] (2 mM KWKK) is listed as “yes”.

(Values after article PMC4929455 (2016).)
